Molecular target: T1, mGluR2 receptor (metabotropic glutamate receptor 2) (Homo sapiens, UniProt Q14416)
T1 construct: expressed in transfected cells
Test: mGluR2 Potentiator Screen, FLIPR, EC10-EC20 glutamate challenge
Assay type: cell-based
Details: read-out: EC50
How it was run: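 HEK cells stably co-expressing mGluR2 and Gα15, kept glutamine-free overnight, were loaded with Fluo-4 plus probenecid and GPT/pyruvate. Compounds (top 10 μM) were added ≥30 min before an EC10–EC20 glutamate challenge. Peak FLIPR fluorescence ratios were curve-fitted, excluding points above maximal effect, with maxima from on-plate standards.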

T1 sequence (Q14416 19-872, species assumed): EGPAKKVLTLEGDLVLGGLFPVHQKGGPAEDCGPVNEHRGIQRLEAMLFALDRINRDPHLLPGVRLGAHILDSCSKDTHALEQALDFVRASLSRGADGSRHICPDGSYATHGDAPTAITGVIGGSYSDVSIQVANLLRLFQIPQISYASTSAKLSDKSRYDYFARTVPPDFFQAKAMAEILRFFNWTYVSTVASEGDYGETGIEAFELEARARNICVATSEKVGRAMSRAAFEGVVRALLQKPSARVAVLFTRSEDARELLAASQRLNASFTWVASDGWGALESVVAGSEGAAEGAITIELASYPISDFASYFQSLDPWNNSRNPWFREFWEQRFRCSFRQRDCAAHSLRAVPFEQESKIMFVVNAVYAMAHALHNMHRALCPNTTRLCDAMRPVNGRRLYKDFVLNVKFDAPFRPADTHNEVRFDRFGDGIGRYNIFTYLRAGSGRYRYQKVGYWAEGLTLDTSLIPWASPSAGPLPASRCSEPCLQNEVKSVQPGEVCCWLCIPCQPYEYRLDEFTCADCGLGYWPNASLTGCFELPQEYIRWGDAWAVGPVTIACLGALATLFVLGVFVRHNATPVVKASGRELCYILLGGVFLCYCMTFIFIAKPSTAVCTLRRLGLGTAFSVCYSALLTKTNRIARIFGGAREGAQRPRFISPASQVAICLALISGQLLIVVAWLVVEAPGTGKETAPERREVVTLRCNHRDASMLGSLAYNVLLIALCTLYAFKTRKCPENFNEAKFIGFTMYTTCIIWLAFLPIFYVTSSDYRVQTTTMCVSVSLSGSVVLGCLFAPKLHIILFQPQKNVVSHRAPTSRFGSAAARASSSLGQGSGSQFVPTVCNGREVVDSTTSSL

Row | EC50 [nM] | SMILES
1 | < 12.4 | COc1cc(C(F)(F)F)ccc1C1CCN(Cc2nc3c(F)cccc3n2C)CC1 [compound 399]
2 | 43.6 | COc1cc(C(F)(F)F)ccc1C1CCN(Cc2nc3c(F)cccc3n2C)CC1 [compound 400]
3 | 161 | Cn1c(CN2CCC(c3cc(C(F)(F)F)ccc3F)CC2)nc2c(F)cccc21 [compound 401]
4 | 523 | CC(C)Oc1ccccc1C1CCN(Cc2nc3cc(C#N)ccc3n2C)CC1 [compound 402]
5 | 224 | Cn1c(CN2CCC(c3ccccc3C(F)(F)F)CC2)nc2cc(C#N)ccc21 [compound 403]
6 | 117 | COc1cc(C(F)(F)F)ccc1C1CCN(Cc2nc3cccc(F)c3n2C)CC1 [compound 406]
7 | 167 | COc1cc(F)ccc1C1CCN(Cc2nc3cccc(F)c3n2C)CC1 [compound 407]
8 | 67.2 | COc1cc(F)ccc1C1CCN(Cc2nc3cc(F)ccc3n2C)CC1 [compound 408]
9 | 63.4 | COc1cc(F)ccc1C1CCN(Cc2nc3ccccc3n2C)CC1 [compound 409]
10 | 5260 | Cn1c(CN2CC[C@@H](c3ccc(F)cc3)[C@H](COc3ccc4c(c3)OCO4)C2)nc2ccccc21 [compound 410]
11 | 633 | Cn1c(CN2CCC(c3ccc(C(F)(F)F)cc3)C(C)(C)C2)nc2ccccc21 (stereo not drawn) [compound 411]
12 | 105 | CC(C)Oc1ccc(C2CCN(Cc3nc4ccccc4n3C)CC2)cc1 [compound 412]
13 | 77.6 | Cn1c(CN2CCC(c3ccccc3OC(F)(F)F)CC2)nc2ccccc21 [compound 413]
14 | 126 | Cn1c(CN2CCC(c3cc(F)cc(F)c3)CC2)nc2ccccc21 [compound 414]
15 | 189 | Cn1c(CN2CCC(c3cc(F)cc(F)c3)CC2)nc2ccccc21 [compound 415]
16 | 168 | Cn1c(CN2CCC(c3ccccc3C#N)CC2)nc2ccccc21 [compound 416]
17 | 180 | Cn1c(CN2CCC(c3cccc(Cl)c3)CC2)nc2ccccc21 [compound 417]
18 | 1610 | Cn1c(CN2CCC(c3cccc(C#N)c3)CC2)nc2ccccc21 [compound 418]

Row | EC50 [nM] | SMILES
19 | 149 | Cn1c(CN2CCC(c3cccc(C(C)(C)C)c3)CC2)nc2ccccc21 [compound 419]
20 | 664 | Cn1c(CN2CCC(c3ccc(Cl)cc3)CC2)nc2ccccc21 [compound 420]
21 | 213 | COc1ccc(C2CCN(Cc3nc4ccccc4n3C)CC2)cc1 [compound 421]
22 | 14.6 | Cn1c(CN2CCC(c3ccc(F)cc3F)CC2)nc2ccccc21 [compound 422]
23 | 35.2 | Cn1c(CN2CCC(c3ccc(F)cc3F)CC2)nc2cc(F)ccc21 [compound 423]
24 | 48.3 | Cn1c(CN2CCC(c3ccc(F)cc3F)CC2)nc2cccc(F)c21 [compound 424]
25 | 89.2 | CCc1ccc(C2CCN(Cc3nc4ccccc4n3C)CC2)cc1 [compound 426]
26 | 140 | Cn1c(CN2CCC(c3ccc(F)cc3F)CC2)nc2cc(C#N)ccc21 [compound 427]
27 | 1120 | Cn1c(CN2CCC(c3ccc(C(F)(F)F)cc3)C(O)C2)nc2ccccc21 (stereo not drawn) [compound 428]
28 | 65.1 | Cc1ccccc1C1CCN(Cc2nc3ccccc3n2C)CC1 [compound 429]
29 | 3310 | Cn1c(CN2CCC(c3cccc(F)c3)CC2)nc2ccccc21 [compound 430]
30 | 5340 | Cn1c(CN2CCC(c3cc(F)cc4c3OCCC4)CC2)nc2ccccc21 [compound 431]
31 | 257 | Cn1c(CN2CCC(F)(c3ccc(Cl)cc3)CC2)nc2ccccc21 [compound 432]
32 | 122 | Cn1c(CN2CCC(F)(c3ccc(C(F)(F)F)cc3)CC2)nc2ccccc21 [compound 433]
33 | 308 | Cn1c(CN2CCC(F)(c3ccc(F)cc3)CC2)nc2ccccc21 [compound 434]
34 | 3300 | Cc1cccc(NC(=O)c2cccc(C3CCN(Cc4nc5ccccc5n4C)CC3)c2)n1 [compound 435]
35 | 2210 | CCCN(CC1CC1)C(=O)c1cccc(C2CCN(Cc3nc4ccccc4n3C)CC2)c1 [compound 436]

Row | SMILES | EC50 [nM]
36 | COc1cc(C2CCN(Cc3nc4ccccc4n3C)CC2)ccc1F [compound 425] | 434

From patent publication US20080280933A1, “BENZIMIDAZOLYL COMPOUNDS” (priority 2006, published 2008)
